Measurements: patent US20210277003A1, “OGA INHIBITOR COMPOUNDS” (Janssen Pharmaceutica NV, priority 2018, published 2021)

How the values were obtained:
[1] = tested on: OGA in HEK293 cells inducible for P301L mutant human Tau (isoform 2N4R); test: OGA cellular assay: immunocytochemical detection of O-GlcNAcylated proteins (CTD110.6 antibody); assay type: cell-based; conditions: Homo sapiens, HEK293, 6 h, 6 hours incubation; for Emax: maximum = Thiamet G 200 uM; for EC50: read-out: Cellular hOGA, pEC50 (converted)
Method: HEK293 cells inducible for P301L mutant human Tau (isoform 2N4R) were established at Janssen. Thiamet-G was used for both plate validation (high control) and as reference compound (reference EC50 assay validation). OGA inhibition is evaluated through the immunocytochemical (ICC) detection of O-GlcNAcylated proteins by the use of a monoclonal antibody (CTD110.6; Cell Signaling, #9875) detecting 0-GlcNAcylated residues as previously described (Dorfmueller et al. 2010 Chemistry & biology, 17:1250). Inhibition of OGA will result in an increase of O-GlcNAcylated protein levels resulting in an increased signal in the experiment. Cell nuclei are stained with Hoechst to give a cell culture quality control and a rough estimate of immediate compounds toxicity, if any. ICC pictures are imaged with a Perkin Elmer Opera Phenix plate microscope and quantified with the provided software Perkin Elmer Harmony 4.1.
Cells were propagated in DMEM high Glucose (Sigma, #D5796) following standard procedures. 2 days before the cell assay cells are split, counted and seeded in Poly-D-Lysine (PDL) coated 96-wells (Greiner, #655946) plate at a cell density of 12,000 cells per cm^2 (4,000 cells per well) in 100p of Assay Medium (Low Glucose medium is used to reduce basal levels of GlcNAcylation) (Park et al. 2014 The Journal of biological chemistry 289:13519). At the day of compound test medium from assay plates was removed and replenished with 90 µl of fresh Assay Medium. 10p of compounds at a 10 fold final concentration were added to the wells. Plates were centrifuged shortly before incubation in the cell incubator for 6 hours. DMSO concentration was set to 0.2%. Medium is discarded by applying vacuum. For staining of cells medium was removed and cells washed once with 100 μl D-PBS (Sigma, #D8537). From next step onwards unless other stated assay volume was always 50p and incubation was performed without agitation and at room temperature. Cells were fixed in 50 μl of a 4% paraformaldehyde (PFA, Alpha aesar, #043368) PBS solution for 15 minutes at room temperature. […] Before analysis samples were washed 2 times manually for 5 minutes in ICC base buffer.
Imaging is performed using Perkin Elmer Phenix Opera using a water 20× objective and recording 9 fields per well. Intensity readout at 488 nm is used as a measure of O-GlcNAcylation level of total proteins in wells. To assess potential toxicity of compounds nuclei were counted using the Hoechst staining. IC50-values are calculated using parametric non-linear regression model fitting. As a maximum inhibition Thiamet G at a 200 uM concentration is present on each plate. In addition, a concentration response of Thiamet G is calculated on each plate.

[2] = biological target: T1, recombinant human Meningioma Expressed Antigen 5 (MGEA5), also referred to as O-GlcNAcase (OGA) (Homo sapiens, UniProt O60502); test: OGA biochemical assay: inhibition of hydrolysis of fluorescein mono-ß-D-N-Acetyl-Glucosamine (FM-GlcNAc), fluorescence readout; conditions: FM-GlcNAc substrate; for Emax: read-out: Enzymatic Emax (%); for IC50: read-out: Enzymatic hOGA, pIC50 (converted)
T1 construct: Full length OGA enzyme was purchased at OnGene (cat #TP322411); purchased OnGene (so in the source)
T1 sequence (O60502 1-916): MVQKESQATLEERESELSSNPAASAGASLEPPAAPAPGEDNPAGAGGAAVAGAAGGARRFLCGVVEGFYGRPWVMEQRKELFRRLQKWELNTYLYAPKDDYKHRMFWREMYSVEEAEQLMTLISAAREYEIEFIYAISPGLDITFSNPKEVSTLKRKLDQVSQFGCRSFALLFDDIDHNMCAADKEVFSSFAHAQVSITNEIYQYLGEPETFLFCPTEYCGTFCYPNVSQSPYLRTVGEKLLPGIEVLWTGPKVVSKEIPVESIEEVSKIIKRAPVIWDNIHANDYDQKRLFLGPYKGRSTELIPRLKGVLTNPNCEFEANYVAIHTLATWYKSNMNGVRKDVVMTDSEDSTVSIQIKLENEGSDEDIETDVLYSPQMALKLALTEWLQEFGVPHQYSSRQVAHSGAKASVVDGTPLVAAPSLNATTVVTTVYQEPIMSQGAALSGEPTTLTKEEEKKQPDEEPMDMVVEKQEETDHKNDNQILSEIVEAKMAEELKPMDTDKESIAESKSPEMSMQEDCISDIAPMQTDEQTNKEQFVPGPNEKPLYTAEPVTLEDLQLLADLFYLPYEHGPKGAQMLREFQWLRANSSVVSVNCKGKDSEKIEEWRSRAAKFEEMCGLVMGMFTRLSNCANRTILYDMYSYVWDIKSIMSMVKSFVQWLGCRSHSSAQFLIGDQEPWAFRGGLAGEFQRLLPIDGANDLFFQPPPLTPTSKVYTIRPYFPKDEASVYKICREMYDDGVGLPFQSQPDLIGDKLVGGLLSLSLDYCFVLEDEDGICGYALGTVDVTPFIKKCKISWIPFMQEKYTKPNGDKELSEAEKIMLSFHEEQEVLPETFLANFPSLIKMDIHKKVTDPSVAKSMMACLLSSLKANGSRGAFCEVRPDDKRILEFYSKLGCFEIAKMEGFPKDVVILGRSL
Procedure, shortened: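 Full-length recombinant human OGA (2 nM) was pre-incubated with compound for 60 min, then reacted with 100 uM FM-GlcNAc for 6 h at room temperature in 200 mM citrate/phosphate pH 7.2 with 0.005% Tween-20. Reactions were stopped with pH 11.0 carbonate and fluorescein read at 485/538 nm. IC50 and Hill coefficient came from curve fitting.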

| Enzymatic hOGA; pIC50 [2] | Emax [2] [%] | IC50 [2] [nM] | SMILES | Emax [1] [%] | EC50 [1] [nM] |
| --- | --- | --- | --- | --- | --- |
| 7.38 | 103 | – | Cc1ccnc(C)c1Nc1nccc2c1ccn2CC1CC(F)(F)C1 [Compound 92] | 75 | 151 |
| – | 100 | 34.7 | CCCCn1ccc2c(Nc3c(Cl)cncc3Cl)nccc21 [Compound 42] | 49 | > 1000 |
| 8 | 101 | – | Cc1cc(F)cc(F)c1Nc1nccc2c1ccn2CC(C)(F)F [Compound 155] | 73.3 | 50.1 |
| – | 101 | 24.5 | Cc1cncc(C)c1Nc1nccc2c1ccn2CC1CC1 [Compound 41] | 71 | 95.5 |
| – | 104 | 0.891 | CCCCn1ccc2c(Nc3c(C)cccc3C(C)C)nccc21 [Compound 67] | 99 | 16.2 |
| 7.76 | 103 | – | Cc1ccnc(C(C)C)c1Nc1nccc2c1ccn2CC1CCOC1 (stereo not shown) [Compound 141] | 74.7 | 107 |
| – | 101 | 3.09 | Cc1ccnc(C)c1Nc1nccc2c1ccn2CC(F)(F)C(C)C [Compound 202] | 88.1 | 3.63 |
| 8.54 | 103 | – | CCCCn1ccc2c(Nc3c(Cl)ccc4c3ccn4C)nccc21 [Compound 14] | 80 | 182 |
| – | 103 | 6.03 | Cc1cc(F)cc(C(C)C)c1Nc1nccc2c1ccn2CC1CC(F)(F)C1 [Compound 171] | 73.8 | 38.9 |
| 7.61 | 104 | – | FC1(F)CC1CCn1ccc2c(Nc3c(Cl)cccc3Cl)nccc21 (stereo not shown) [Compound 95] | 63 | 525 |
| 8.58 | 104 | – | Cc1cc(C(F)(F)F)cc(C(C)C)c1Nc1nccc2c1ccn2CC1CCO1 (stereo not shown) [Compound 161] | 88.8 | 6.76 |
| – | 104 | 7.76 | Cc1cncc(C(F)(F)F)c1Nc1nccc2c1ccn2CCC1CC1 [Compound 194] | 67.9 | 79.4 |
| – | 101 | 57.5 | Cc1ccnc(C)c1Nc1nccc2c1ccn2CC1(F)CC1 [Compound 204] | 76.1 | 269 |

Further lines, the compound ahead of its results:

| SMILES | Enzymatic hOGA; pIC50 [2] | Emax [2] [%] | IC50 [2] [nM] | Emax [1] [%] | EC50 [1] [nM] |
| --- | --- | --- | --- | --- | --- |
| Cc1cc(Cn2ccc3c(Nc4c(Cl)cc(F)cc4Cl)nccc32)no1 [Compound 158] | 8.58 | 101 | – | 71 | 63.1 |
| CCC(F)Cn1ccc2c(Nc3c(C)ccnc3C)nccc21 (stereo not shown) [Compound 78] | – | 103 | 3.24 | 96 | 7.94 |
| Cc1ccnc(C(C)C)c1Nc1nccc2c1ccn2CC(F)(F)C1CC1 [Compound 85] | – | 104 | 0.977 | 94 | 0.708 |
| Cc1cc(F)cc(C)c1Nc1nccc2c1ccn2CC1CC(F)(F)C1 [Compound 170] | – | 100 | 27.5 | 78.6 | 83.2 |
| CCCCn1ccc2c(Nc3c(F)cncc3C3CC3)nccc21 [Compound 43] | – | 99 | 24 | 50 | 676 |
| CCCCn1ccc2c(Nc3c(C)ccnc3C)nccc21 [Compound 6] | 8.16 | 102 | – | 89 | 50.1 |
| CCCC(C)n1ccc2c(Nc3c(Cl)cccc3Cl)nccc21 (stereo not shown) [Compound 39] | – | 102 | 53.7 | 56 | 692 |
| Cc1cc(C(F)(F)F)cc(C)c1Nc1nccc2c1ccn2CC(C)(F)F [Compound 130] | 8.6 | 102 | – | 93.7 | 3.16 |
| CCCCn1ccc2c(Nc3c(C)cncc3C)nccc21 [Compound 52] | – | 103 | 9.55 | 72 | 26.9 |
| CCCCn1ccc2c(Nc3c(C)cc(C(=O)N4CCOCC4)cc3C)nccc21 [Compound 56] | – | 101 | 2.69 | 107 | 5.13 |
| Cc1cc(OC(F)(F)F)cc(C)c1Nc1nccc2c1ccn2CC(F)(F)C(C)C [Compound 187] | – | 101 | 1.78 | 96.4 | 8.71 |
| Cc1ccnc(OC(F)F)c1Nc1nccc2c1ccn2CC1CC(F)(F)C1 [Compound 114] | 7.03 | 100 | – | 49.6 | 871 |
| Cc1ccnc(C(F)F)c1Nc1nccc2c1ccn2CC(C)(F)F [Compound 134] | 8.28 | 99.9 | – | 77.5 | 81.3 |
| Cc1cncc(Cl)c1Nc1nccc2c1ccn2CCC1CC1 [Compound 65] | – | 104 | 5.37 | 69 | 120 |
| Cc1cc(C)c(Nc2nccc3c2ccn3CC(C)(F)F)c(OC(F)F)n1 [Compound 156] | 8.07 | 102 | – | 70.9 | 45.7 |
| Cc1cc2cnn(C)c2c(C)c1Nc1nccc2c1ccn2CC(F)(F)C(C)C [Compound 189] | – | 100 | 1.05 | 101 | 3.16 |
| CCCCn1ccc2c(Nc3c(Cl)ccc4c3CCO4)nccc21 [Compound 8] | 8.11 | 102 | – | 87 | 110 |
| Cc1cc(C(F)(F)F)cc(C)c1Nc1nccc2c1ccn2CC1CC(F)(F)C1 [Compound 118] | 7.89 | 102 | – | 71.7 | 74.1 |
| CC[C@@H](O)Cn1ccc2c(Nc3c(C)cc(F)cc3C)nccc21 [Compound 145a] | 7.79 | 100 | – | 81.2 | 56.2 |
| Cc1cc(F)c(F)c(C)c1Nc1nccc2c1ccn2CC(C)(F)F [Compound 153] | 8.52 | 102 | – | 74.1 | 20.4 |
| Cc1cc(C(F)(F)F)nc(C)c1Nc1nccc2c1ccn2CC(C)(F)F [Compound 131] | 8.36 | 102 | – | 78.7 | 15.5 |
